pEC50, pIC50: −log10 of the molar value. Values belong to the compound of their own block, whether it stands above or below them. Activity calls are given as the source filed them. The rule behind the calls is not given here.
Key:
NCI/ADR-RES [1] = test: Antiproliferative activity against human multidrug resistant NCI-ADR-RES cells overexpressing P-gp assessed as reduction in cell viability incubated for 48 hrs by MTT assay; format: functional, cell-based
[2] = Cytotoxicity against human HEK293T cells assessed as reduction in cell viability incubated for 48 hrs by MTT assay; format: toxicity, cell-based, HEK-293T
MCF7 [3] = test: Antiproliferative activity against human MCF7 cells assessed as reduction in cell viability incubated for 48 hrs by MTT assay; format: functional, cell-based; conditions: MCF7, 48 h
NCI/ADR-RES [4] = test: Reversal fold, ratio of doxorubicin IC50 to doxorubicin IC50 in presence of 10 uM test compound for reversal of P-gp-mediated multidrug resistance in human NCI-ADR-RES cells incubated for 48 hrs by MTT assay; format: functional
A549/TR = test: Antiproliferative activity against human Taxol resistant A549 cells assessed as inhibition of cell growth at 50 uM incubated for 48 hrs by MTT assay; format: functional, cell-based
HCT-8 [5] = test: Antiproliferative activity against human Taxol resistant HCT-8 cells assessed as inhibition of cell growth at 50 uM incubated for 48 hrs by MTT assay; format: functional, cell-based
NCI/ADR-RES [6] = test: Antiproliferative activity against human multidrug resistant NCI-ADR-RES cells assessed as inhibition of cell growth at 50 uM incubated for 48 hrs by MTT assay; format: functional, cell-based
NCI/ADR-RES [7] = test: Reversal of P-gp-mediated multidrug resistance in human NCI-ADR-RES cells assessed as potentiation of doxorubicin-induced cytotoxicity incubated for 48 hrs by MTT assay; format: functional, cell-based
MCF7 [8] = test: Antiproliferative activity against human MCF7 cells assessed as inhibition of cell growth at 50 uM incubated for 48 hrs by MTT assay; format: functional, cell-based
HCT-8 [9] = test: Antiproliferative activity against human HCT-8 cells assessed as inhibition of cell growth at 50 uM incubated for 48 hrs by MTT assay; format: functional, cell-based
A549 = test: Antiproliferative activity against human A549 cells assessed as inhibition of cell growth at 50 uM incubated for 48 hrs by MTT assay; format: functional, cell-based

Structure (SMILES): C=C1[C@H](OCC(C)C)C2=C(C[C@@](C)(OC(C)=O)[C@@H]2OC(C)=O)[C@@H](OC(=O)c2ccccc2)[C@@H](C)/C=C/C(C)(C)[C@H](OC(C)=O)[C@H](OC(C)=O)[C@H]1OCC(C)C
pIC50 (NCI/ADR-RES [1]): < 4.00 | IC50 at 48 h [2]: > 100 µM | pIC50 (MCF7 [3]; read-out: IC50): < 4.00 | Ratio IC50 (NCI/ADR-RES [4]): 15.81

Structure (SMILES): C=C1[C@H](OC(C)=O)[C@@H](OC(=O)C(C)(C)C)[C@@H](OC(C)=O)C(C)(C)/C=C/[C@H](C)[C@H](OC(=O)c2ccccc2)[C@@]2(O)C[C@@](C)(OC(C)=O)[C@H](OC(C)=O)[C@@H]2[C@H]1OCC(C)C
pIC50 (NCI/ADR-RES [1]): < 4.00 | IC50 at 48 h [2]: 18.9 µM | pIC50 (MCF7 [3]; read-out: IC50): < 4.00 | Ratio IC50 (NCI/ADR-RES [4]): 33.78

Structure (SMILES): C=C1[C@H](OC(C)=O)[C@@H](OC(=O)c2cccc(C)c2)[C@@H](OC(C)=O)C(C)(C)/C=C/[C@H](C)[C@H](OC(=O)c2ccccc2)[C@@]2(O)C[C@@](C)(OC(C)=O)[C@H](OC(C)=O)[C@@H]2[C@H]1OCC(C)C
pIC50 (NCI/ADR-RES [1]): < 4.00 | IC50 at 48 h [2]: 7.6 µM | pIC50 (MCF7 [3]; read-out: IC50): < 4.00 | Ratio IC50 (NCI/ADR-RES [4]): 30.48

Structure (SMILES): COc1ccc(CCN(C)CCCC(C#N)(c2ccc(OC)c(OC)c2)C(C)C)cc1OC (configuration not stated)
Activity (A549/TR): inactive | pIC50 (NCI/ADR-RES [1]): < 4.00 | Activity (HCT-8 [5]): inactive | IC50 at 48 h [2]: 32 µM | Activity (NCI/ADR-RES [6]): inactive | pIC50 (MCF7 [3]): 4.06 | pEC50 (NCI/ADR-RES [7]): 6.49 | Activity (MCF7 [8]): inactive | Activity (HCT-8 [9]): inactive | Activity (A549): inactive

Structure (SMILES): C=C1[C@H](O)[C@@H](O)[C@@H](O)C(C)(C)/C=C/[C@H](C)[C@H](OC(=O)c2ccccc2)[C@@]2(O)C[C@@](C)(O)[C@H](OC(C)=O)[C@@H]2[C@H]1OCC(C)C
pIC50 (NCI/ADR-RES [1]): < 4.00 | IC50 at 48 h [2]: > 100 µM | pIC50 (MCF7 [3]; read-out: IC50): < 4.00

Structure (SMILES): C=C1[C@H](OC(C)=O)[C@@H](OC(C)=O)[C@@H](OC(C)=O)C(C)(C)/C=C/[C@H](C)[C@H]2O[C@]3(C)C[C@@]2(OC(=O)c2ccccc2)[C@H]([C@H]3OC(C)=O)[C@H]1OCC(C)C
pIC50 (NCI/ADR-RES [1]): < 4.00 | IC50 at 48 h [2]: 13.5 µM | pIC50 (MCF7 [3]; read-out: IC50): < 4.00 | Ratio IC50 (NCI/ADR-RES [4]): 34.3

Structure (SMILES): C=C1[C@H](OC(C)=O)[C@@H](OC(=O)C(C)(C)C)[C@@H](OC(C)=O)C(C)(C)/C=C/[C@H](C)[C@H]2O[C@]3(C)C[C@@]2(OC(=O)c2ccccc2)[C@H]([C@H]3OC(C)=O)[C@H]1OCC(C)C
pIC50 (NCI/ADR-RES [1]): < 4.00 | IC50 at 48 h [2]: > 100 µM | pIC50 (MCF7 [3]; read-out: IC50): < 4.00 | Ratio IC50 (NCI/ADR-RES [4]): 21.3

Structure (SMILES): C=C1[C@H](OC(C)=O)[C@@H](OC(=O)C(C)(C)C)[C@@H](OC(C)=O)C(C)(C)/C=C/[C@H](C)[C@H](OC(=O)c2ccccc2)[C@@]2(O)C[C@@](C)(O)[C@H](OC(C)=O)[C@@H]2[C@H]1OCC(C)C
pIC50 (NCI/ADR-RES [1]): < 4.00 | IC50 at 48 h [2]: 52.1 µM | pIC50 (MCF7 [3]; read-out: IC50): < 4.00 | Ratio IC50 (NCI/ADR-RES [4]): 47.77

Structure (SMILES): C=C1[C@H](OC(C)=O)[C@@H](OC(=O)c2cccc(C)c2)[C@@H](OC(C)=O)C(C)(C)/C=C/[C@H](C)[C@H]2O[C@]3(C)C[C@@]2(OC(=O)c2ccccc2)[C@H]([C@H]3OC(C)=O)[C@H]1OCC(C)C
pIC50 (NCI/ADR-RES [1]): < 4.00 | IC50 at 48 h [2]: > 100 µM | pIC50 (MCF7 [3]; read-out: IC50): < 4.00 | Ratio IC50 (NCI/ADR-RES [4]): 8.9

Structure (SMILES): C=C1[C@H](OC(C)=O)[C@@H](OC(C)=O)[C@@H](OC(C)=O)C(C)(C)/C=C/[C@H](C)[C@H](OC(=O)c2ccccc2)[C@@]2(O)C[C@@](C)(OC(=O)c3cccc(C)c3)[C@H](OC(C)=O)[C@@H]2[C@H]1OCC(C)C
pIC50 (NCI/ADR-RES [1]): < 4.00 | IC50 at 48 h [2]: 7.22 µM | pIC50 (MCF7 [3]; read-out: IC50): < 4.00 | Ratio IC50 (NCI/ADR-RES [4]): 38.74

Structure (SMILES): C=C1[C@H](OC(C)=O)[C@@H](OC(C)=O)[C@@H](OC(C)=O)C(C)(C)/C=C/[C@H](C)[C@H](OC(=O)c2ccccc2)[C@@]2(O)C[C@@](C)(OC(=O)c3ccncc3)[C@H](OC(C)=O)[C@@H]2[C@H]1OCC(C)C
pIC50 (NCI/ADR-RES [1]): < 4.00 | IC50 at 48 h [2]: 19.5 µM | pIC50 (MCF7 [3]; read-out: IC50): < 4.00 | Ratio IC50 (NCI/ADR-RES [4]): 89.33

Structure (SMILES): CC(=O)O[C@@H]1[C@@H]2[C@@H](OCC(C)C)C3(CO3)[C@H](O)[C@@H](O)[C@@H](O)C(C)(C)/C=C/[C@H](C)[C@H](OC(=O)c3ccccc3)[C@@]2(O)C[C@@]1(C)O (some centres not stated)
pIC50 (NCI/ADR-RES [1]): < 4.00 | IC50 at 48 h [2]: > 100 µM | pIC50 (MCF7 [3]; read-out: IC50): < 4.00

Structure (SMILES): C=C1[C@H](OCC(C)C)[C@@H](OC(C)=O)[C@@H](OC(C)=O)C(C)(C)[C@@H]2O[C@H]2[C@H](C)[C@H](OC(=O)c2ccccc2)[C@@]2(O)C[C@@](C)(OC(C)=O)[C@H](OC(C)=O)[C@@H]2[C@H]1OCC(C)C
pIC50 (NCI/ADR-RES [1]): < 4.00 | IC50 at 48 h [2]: 48.1 µM | pIC50 (MCF7 [3]; read-out: IC50): < 4.00 | Ratio IC50 (NCI/ADR-RES [4]): 52.31

Structure (SMILES): C=C1[C@H](OC(C)=O)[C@@H](OC(C)=O)[C@@H](OC(C)=O)C(C)(C)/C=C/[C@H](C)[C@H](OC(=O)c2ccccc2)[C@@]2(O)C[C@@](C)(O)[C@H](OC(C)=O)[C@@H]2[C@H]1OCC(C)C
pIC50 (NCI/ADR-RES [1]): < 4.00 | IC50 at 48 h [2]: 39.3 µM | pIC50 (MCF7 [3]; read-out: IC50): < 4.00 | Ratio IC50 (NCI/ADR-RES [4]): 4.49

Further lines, with some results ahead:

pIC50 (MCF7 [3]; read-out: IC50): < 4.00
Structure (SMILES): C=C1[C@H](OCC(C)C)[C@@H](OC(C)=O)[C@@H](OC(C)=O)C(C)(C)/C=C/[C@H](C)[C@H](OC(=O)c2ccccc2)[C@@]2(O)C[C@@](C)(OC(C)=O)[C@H](OC(C)=O)[C@@H]2[C@H]1OCC(C)C
pIC50 (NCI/ADR-RES [1]): < 4.00 | IC50 at 48 h [2]: > 100 µM | Ratio IC50 (NCI/ADR-RES [4]): 10.64

pIC50 (MCF7 [3]; read-out: IC50): < 4.00
Structure (SMILES): C=C1[C@H](OC(C)=O)[C@@H](OC(C)=O)[C@@H](O)C(C)(C)/C=C/[C@H](C)[C@H](OC(=O)c2ccccc2)[C@@]2(O)C[C@@](C)(O)[C@H](OC(C)=O)[C@@H]2[C@H]1OCC(C)C
pIC50 (NCI/ADR-RES [1]): < 4.00 | IC50 at 48 h [2]: > 100 µM

pIC50 (MCF7 [3]; read-out: IC50): 4.13
Structure (SMILES): C=C1[C@H](OC(C)=O)[C@@H](OC(C)=O)[C@@H](OC(C)=O)C(C)(C)/C=C/[C@H](C)[C@H](OC(=O)c2ccccc2)[C@@]2(O)C[C@@](C)(OC(C)=O)[C@H](OC(C)=O)[C@@H]2[C@H]1OCC(C)C
pIC50 (NCI/ADR-RES [1]): < 4.00 | IC50 at 48 h [2]: 26.1 µM | Ratio IC50 (NCI/ADR-RES [4]): 12.16

pIC50 (MCF7 [3]; read-out: IC50): 4.67
Structure (SMILES): C=C1[C@H](OC(=O)c2cccc(C)c2)[C@@H](O)[C@@H](O)C(C)(C)/C=C/[C@H](C)[C@H](OC(=O)c2ccccc2)[C@@]2(O)C[C@@](C)(O)[C@H](OC(C)=O)[C@@H]2[C@H]1OCC(C)C
pIC50 (NCI/ADR-RES [1]): 4.47 | IC50 at 48 h [2]: 12 µM | Ratio IC50 (NCI/ADR-RES [4]): 8.85

pIC50 (MCF7 [3]; read-out: IC50): 4.20
Structure (SMILES): C=C1[C@H](O)[C@@H](OC(=O)c2cccc(C)c2)[C@@H](O)C(C)(C)/C=C/[C@H](C)[C@H](OC(=O)c2ccccc2)[C@@]2(O)C[C@@](C)(O)[C@H](OC(C)=O)[C@@H]2[C@H]1OCC(C)C
pIC50 (NCI/ADR-RES [1]): 4.12 | IC50 at 48 h [2]: 31.3 µM | Ratio IC50 (NCI/ADR-RES [4]): 7.66

pIC50 (MCF7 [3]; read-out: IC50): 4.16
Structure (SMILES): C=C1[C@H](O)[C@@H](OC(=O)C(C)(C)C)[C@@H](O)C(C)(C)/C=C/[C@H](C)[C@H](OC(=O)c2ccccc2)[C@@]2(O)C[C@@](C)(O)[C@H](OC(C)=O)[C@@H]2[C@H]1OCC(C)C
pIC50 (NCI/ADR-RES [1]): < 4.00 | IC50 at 48 h [2]: 31.7 µM | Ratio IC50 (NCI/ADR-RES [4]): 0.91

pIC50 (MCF7 [3]; read-out: IC50): 4.63
Structure (SMILES): C=C1[C@H](OC(C)=O)[C@@H](OC(=O)c2cccc(C)c2)[C@@H](OC(C)=O)C(C)(C)/C=C/[C@H](C)[C@H](OC(=O)c2ccccc2)[C@@]2(O)C[C@@](C)(O)[C@H](OC(C)=O)[C@@H]2[C@H]1OCC(C)C
pIC50 (NCI/ADR-RES [1]): < 4.00 | IC50 at 48 h [2]: 4.11 µM | Ratio IC50 (NCI/ADR-RES [4]): 59.71

Reference: ChEMBL document CHEMBL5247598 (Eur J Med Chem, 2022)
